Test results published in patent US6262023A, “WD-40 derived peptides and uses thereof” (The Board of Trustees of the Leland Stanford Junior …, priority 1995, dated 2001).

Columns and labels:
[1] = molecular target: βPKC (Rattus norvegicus, UniProt P68403); assay: Sensitivity of βPKC to Arg-C endopeptidase (nicking); format: biochemical; set-up: All the solutions contained 5 nM rat brain PKC in peptide overlay buffer; from tissue; host or cells: rat brain; conditions: 2.5 μg/ml PS and 50 μM CaCl2; peptide 10 μM; Arg-C 5 units/ml
Text: Upon activation of PKC, a pseudosubstrate autoinhibitory sequence at the N-terminus of the molecule dissociates from the catalytic site and becomes sensitive to endopeptidase Arg-C (Orr, et al.). In the absence of PKC activators, exposure of the 80 kDa βPKC to endopeptidase Arg-C has no effect on the enzyme (see FIG. 7, lane 1). In the presence of the PKC activators PS, DG and calcium, however, exposure of βPKC to Arg-C results in a "nicking" of the PKC (i.e. limited proteolysis generating a 78 kDa fragment and several small fragments (see FIG. 7, lane 2)). Continued exposure to Arg-C results in the disappearance of βPKC (Orr, et al.). The present experiment tests whether peptides derived from the WD-40 region of RACK1 alter the sensitivity of βPKC to endopeptidase Arg-C.
The methods used to assay Arg-C sensitivity are a modification of methods described by Orr, et al. Rat brain PKC (~5 nM) was incubated at room temperature in 500 μl of 20 mM Tris-HCl buffer (pH 7.5) alone or with Arg-C (5 units/ml) in the presence or absence of the indicated peptides (final concentration 10 μM or as indicated), PS, DG, and calcium (as indicated). 50 μl aliquots were removed into 20 μl of sample buffer during the reaction as indicated (samples in all the lanes were incubated for 30 minutes, except lanes 5, and 6, which were incubated for 5 and 15 minutes, respectively). The samples were boiled for 10 minutes at 80° C. and loaded onto 8% SDS-PAGE. βPKC was detected by Western blot analysis using anti-βPKC antibodies as described in Examples 6 and 8.
PKC was incubated for the indicated time alone (lane 1) or in the presence of Arg-C (lanes 2-9), with DG (0.8 μg/ml), PS (50 μg/ml) and CaCl2 (1 mM; lane 2), with PS (50 μg/ml) and CaCl2 (1 mM; lane 3), with PS (2.5 μg/ml) and CaCl2 (50 μM; lane 4); with PS (2.5 μg/ml), CaCl2 (50 μM) and with either peptide rVI (SEQ ID NO:7; 10 μM; lanes 5-7), control peptide (SEQ ID NO: 9; lane 8) or with peptide I (SEQ ID) NO:1; lane 9).

[2] = system: PKC binding to RACK1; assay: Overlay / overlay-extraction assay: inhibition of PKC binding to recombinant RACK1 by peptides; set-up: species or system rat; conditions: 10 μM peptide preincubated with PKC isozyme mixture; compared with binding in the absence of added peptide; n=3
Procedure: Purified recombinant RACK1 protein (100-250 μg per lane, produced as detailed in Example 2) was subjected to SDS/PAGE and blotted onto nitrocellulose membranes (Ausubel). The nitrocellulose membranes were cut into strips, which were incubated for 0.5 hr in overlay buffer (Example 1) in the presence or absence of a mixture of PKC isozymes (α, β, γ, ε and .zeta., ~10 nM each final concentration) and PKC activators (60 μg/ml phosphatidylserine (PS), 2 μg/ml diacylglycerol (DG), and 1 mM CaCl2). Unbound material was removed by five washes, 5-min each, in overlay wash buffer. Where indicated, PKC activators were present during the incubation of PKC with the nitrocellulose strips. The conditions for each sample and corresponding results are presented in part D below.
The variation in the overlay protocol consisted of incubating the putative binding peptides with a mixture of PKC isozymes for 15 minutes at room temperature before the mixture was used to contact the nitrocellulose strips containing immobilized RACK1.
Nitrocellulose strips containing immobilized RACK1, that had been contacted with a solution containing a mixture of PKC isozymes, were washed and the area corresponding to the 36 kDa (RACK1-containing) band was cut out. The pieces (containing PKC/RACK1 complexes) were incubated with sample buffer for 10 minutes at 80° C. The sample buffer and the nitrocellulose pieces were then placed in wells in the PAGE gel and subjected to SDS-PAGE to elute the bound proteins. The gel was blotted onto nitrocellulose and a Western blot analysis was carried out using the mixture of antibodies (specific for PKC α, β, γ, δ, ε and .zeta. isozymes) described in Example 1 part B. Bound antibodies were detected by ^125 I-protein A.
Peptides derived from or homologous to WD-40 repeats of RACK1 were tested for their ability to inhibit PKC binding to recombinant RACK1. Binding of PKC to RACK1 was carried out using a variation of the overlay procedure described in Example 3 part B. In the experimental samples, peptides were incubated with a solution containing a mixture of rat brain PKC isozymes (~10 nM each) for 15 minutes at room temperature.
Following completion of the modified overlay protocol, the samples were subjected to the overlay-extraction protocol detailed in part B, above.

[3] = system: βPKC; assay: βPKC translocation (soluble vs particulate fraction) in Xenopus oocytes; format: cell-based; conditions: 50 μM peptide microinjected
Procedure: Insulin causes the translocation of βPKC, but not other PKC isozymes, from a cytosolic form to a membrane-associated form, as evidenced by the relative levels of PKC in the soluble vs. the particulate fraction of oocyte homogenate. To assess the effects of RACK1 WD-40-derived peptides on insulin-induced PKC translocation, 50 nl of a 20 mM NaCl solution containing the indicated peptides were microinjected into Xenopus oocytes. The oocytes were then homogenized, and the relative amount of PKC in the soluble and particulate fractions was assayed. The protocol followed was a modification of a method described by Smith, et al. (1992).
Batches of 50 oocytes were microinjected with either peptide rVI (SEQ ID NO:7; 50 μM; lanes 3, 4), peptide I (SEQ ID NO:1; 50 μM, lanes 7, 8) or injection solution (NaCl 20 mM, lanes 1,2 and 5,6). Homogenates from each batch were prepared 60 minutes after microinjection (lanes 1-4) or 60 minutes after addition of insulin (lanes 5-8). The homogenates were centrifuged at 10,000 g for 3 minutes, the upper layer (containing fat and yolk) was removed, and the remainder was frozen at -70° C. […] The amount of PKC in each fraction was determined by Western blot using anti-βPKC antibodies (1:1000 dilution; Seikagaku Kogyo, Tokyo, Japan). Bound primary antibodies were detected by chemiluminescence as described in Example 3, part C.

βPKC (Rattus norvegicus, UniProt P68403), sequence (P68403 whole entry, the tested form may be a part): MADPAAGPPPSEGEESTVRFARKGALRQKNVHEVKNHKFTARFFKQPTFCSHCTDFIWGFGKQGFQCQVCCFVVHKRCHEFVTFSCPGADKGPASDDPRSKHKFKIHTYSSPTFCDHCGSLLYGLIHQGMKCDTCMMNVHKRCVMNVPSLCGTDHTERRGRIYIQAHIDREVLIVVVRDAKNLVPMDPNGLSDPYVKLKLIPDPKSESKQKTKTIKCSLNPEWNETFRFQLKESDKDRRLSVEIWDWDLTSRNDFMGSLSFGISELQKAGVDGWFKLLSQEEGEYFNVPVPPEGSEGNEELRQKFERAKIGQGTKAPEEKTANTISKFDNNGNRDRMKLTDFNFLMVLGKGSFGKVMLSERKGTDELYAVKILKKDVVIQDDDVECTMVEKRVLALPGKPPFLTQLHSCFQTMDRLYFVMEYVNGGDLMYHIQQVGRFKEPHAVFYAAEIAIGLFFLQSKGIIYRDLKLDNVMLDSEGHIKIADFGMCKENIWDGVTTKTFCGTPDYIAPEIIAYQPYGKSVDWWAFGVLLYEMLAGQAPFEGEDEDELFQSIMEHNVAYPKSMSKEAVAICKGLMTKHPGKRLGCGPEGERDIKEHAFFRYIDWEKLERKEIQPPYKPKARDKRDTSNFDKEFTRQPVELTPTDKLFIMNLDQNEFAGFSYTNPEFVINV

With “peptide I: 15-residue peptide homologous to a sequence in the sixth WD-40 repeat of RACK1; PKC antagonist (KGDYEKILVALCGGN)” the “nicking of βPKC by Arg-C (78 kDa fragment) at low concentrations of activators” value [1] was “nicking of βPKC did not occur”, the “inhibition of PKC binding to recombinant RACK1” value [2] was 81±6% and the “effect on insulin (hormone)-induced βPKC translocation” value ([3]; 60 minutes after addition of insulin) was “inhibited insulin-induced βPKC translocation”. For the same substance, the “βPKC distribution / translocation in the absence of insulin treatment” value ([3]; homogenate 60 minutes after microinjection) was “did not affect βPKC distribution”.
